Assay results taken from US7375083B2, “Pharmaceutical compositions for prevention of overdose or abuse” (Shire LLC, priority 2003, dated 2008).
Where two headings read alike, the source gives them in different places.

How the values were obtained:
[1] = Oral plasma levels of oxycodone conjugates in rats, ELISA; details: oral 2 mg/kg
[2] = Intranasal plasma levels of oxycodone conjugates in rats, ELISA; details: intranasal 2 mg/kg
[3] = Intranasal bioavailability of oxycodone conjugates in rats, LC/MS/MS; details: 1 mg/kg dose
[4] = Intravenous bioavailability of oxycodone conjugates in rats, LC/MS/MS; details: 1 mg/kg dose; for AUC 0-1 h / AUC Percent OC / Cmax / Cmax Percent OC: oxycodone plus oxymorphone
[5] = cited from earlier work; for Blood level: 12.5 mg dose

Compound: COc1ccc2c3c1O[C@H]1C(OC(=O)[C@@H](NC(=O)[C@H](Cc4ccc(O)cc4)NC(=O)[C@@H](N)CC(C)C)C(C)C)=CC[C@@]4(OC(=O)[C@@H](NC(=O)[C@H](Cc5ccc(O)cc5)NC(=O)[C@@H](N)CC(C)C)C(C)C)[C@@H](C2)N(C)CC[C@]314 [[Leu-Tyr-Val]2-OC]
- % AUC [1]: 131%
- % Cmax [1]: 120%
- % AUC [2]: 4%
- % Cmax [2]: 5%

Compound: COc1ccc2c3c1O[C@H]1C(OC(=O)[C@H](CC(C)C)NC(=O)[C@@H]4CCCN4C(=O)[C@@H]4CCCN4)=CC[C@@]4(OC(=O)[C@H](CC(C)C)NC(=O)[C@@H]5CCCN5C(=O)[C@@H]5CCCN5)[C@@H](C2)N(C)CC[C@]314 [[PPL]2-OC, [PPL]2-Oxycodone]
- Oxycodone plus oxymorphone level at 5 Minutes [3]: 1380
- Oxycodone plus oxymorphone level at 15 Minutes [3]: 499
- Oxycodone plus oxymorphone level at 30 Minutes [3]: 390
- Oxycodone plus oxymorphone level at 60 Minutes [3]: 98
- AUC Percent OC ([3]; oxycodone plus oxymorphone): 61%
- Cmax Percent OC ([3]; oxycodone plus oxymorphone): 65%
- Oxycodone plus oxymorphone level at 5 Minutes [4]: 22
- Oxycodone plus oxymorphone level at 15 Minutes [4]: 19
- Oxycodone plus oxymorphone level at 30 Minutes [4]: 19
- Oxycodone plus oxymorphone level at 60 Minutes [4]: 43
- AUC 0-1 h [4]: 24 ng·h/mL
- AUC Percent OC [4]: 29%
- Cmax [4]: 43 ng/mL
- Cmax Percent OC [4]: 43%

Compound: COc1ccc2c3c1O[C@H]1C(OC(=O)[C@@H](NC(=O)[C@H](CCC(=O)O)NC(=O)[C@@H]4CCCN4)C(C)C)=CC[C@@]4(OC(=O)[C@@H](NC(=O)[C@H](CCC(=O)O)NC(=O)[C@@H]5CCCN5)C(C)C)[C@@H](C2)N(C)CC[C@]314 [[Pro-Glu-Val]2-OC]
- % AUC [1]: 90%
- % Cmax [1]: 82%
- % AUC [2]: 34%
- % Cmax [2]: 46%

Compound: COc1ccc2c3c1O[C@H]1C(OC(=O)[C@@H](NC(=O)CNC(=O)[C@@H](N)CO)C(C)C)=CC[C@@]4(OC(=O)[C@@H](NC(=O)CNC(=O)[C@@H](N)CO)C(C)C)[C@@H](C2)N(C)CC[C@]314 [[Ser-Gly-Val]2-OC]
- % AUC [1]: 90%
- % Cmax [1]: 92%
- % AUC [2]: 64%
- % Cmax [2]: 73%

Compound: CC(N)Cc1ccccc1 (stereo not shown) [amphetamine]
- Steady-state blood level ([5]; addicts orally consuming an average of 1000 mg per day): 2000 to 3000 ng/mL
- Blood level at which peripheral effects (increased heart rate) start ([5]; in vivo): 20 ng/mL
- Peak blood concentration ([5]; single oral dose of 10 mg, 2 hours): 35 ng/mL

Compound: CN[C@@H](C)Cc1ccccc1 [methamphetamine]
- Urine concentration ([5]; 10 mg, first 24 hours): 500-4,000 ng/mL
- Blood level ([5]; 6 hours): about 16 ng/mL
- Blood level ([5]; 24 hours): about 10 ng/mL
- Amphetamine concentration of methamphetamine abusers, average ([5]; abusers): 1,800 ng/mL
- Methamphetamine concentration of methamphetamine abusers, average ([5]; abusers): 14,200 ng/mL
- Amphetamine concentration of methamphetamine abusers ([5]; abusers, range): 1,000-9,000 ng/mL
- Methamphetamine concentration of methamphetamine abusers ([5]; abusers, range): 2,400-33,300 ng/mL
- Estimated lethal dose ([5]; adults): 1 g
- Estimated lethal dose ([5]; children): 0.1 g
- Maximum blood concentration ([5]; single dose of 10 mg, one hour): 30 ng/mL

Compound: Oxycodone Bitartrate
- Oxycodone plus oxymorphone level at 5 Minutes [3]: 2128
- Oxycodone plus oxymorphone level at 15 Minutes [3]: 1003
- Oxycodone plus oxymorphone level at 30 Minutes [3]: 688
- Oxycodone plus oxymorphone level at 60 Minutes [3]: 278
- AUC 0-1 h ([3]; oxycodone plus oxymorphone): 428 ng·h/mL
- AUC Percent OC ([3]; oxycodone plus oxymorphone): 100%
- Cmax ([3]; oxycodone plus oxymorphone): 2128 ng/mL
- Cmax Percent OC ([3]; oxycodone plus oxymorphone): 100%
- Oxycodone plus oxymorphone level at 5 Minutes [4]: 99
- Oxycodone plus oxymorphone level at 15 Minutes [4]: 104
- Oxycodone plus oxymorphone level at 30 Minutes [4]: 94
- Oxycodone plus oxymorphone level at 60 Minutes [4]: 51
- AUC 0-1 h [4]: 82 ng·h/mL
- AUC Percent OC [4]: 100%
- Cmax [4]: 99 ng/mL
- Cmax Percent OC [4]: 100%
